From US20080096846A1, “Arene Ruthenium (ll) Compounds And Their Use In Cancer Therapy” (priority 2004, published 2008)

What was measured:
[1] = system: A549 (human lung carcinoma, ECACC 86012804); assay: Cytotoxicity A549, sulforhodamine B; type: cell-based; conditions: 24 h exposure, then 96 h in fresh medium, SRB
Experimental: Cell Line A549 (human lung carcinoma, ECACC 86012804) was maintained in medium comprising DMEM (Sigma) with 10% Fetal Bovine Serum (Invitrogen), 2 mM L-Glutamine (Invitrogen) and 1% Penicillin/Streptomycin (Invitrogen), in T-75 flasks (Costar). Cells were passaged at approximately 70-90% confluence (1:8 dilution) using 0.25% Trypsin/EDTA (Invitrogen).
(§1) Both cell lines were incubated at 37° C., 5% CO2, in high humidity.
(§2) A2780 carcinoma cells were seeded (150 μL) into 96 well plates (Nunc Maxisorp) at 5000 (±10%) cells per well and incubated at 37° C., 5% CO2 in high humidity for 48 hours. A549 carcinoma cells were seeded (150 μL) into 96 well plates (Nunc Maxisorp) at 2000 (±10%) cells per well and incubated at 37° C., 5% CO2 in high humidity for 24 hours.
(§3) The compounds to be tested were solubilised by sonication in DMSO (Fisher Scientific) to provide 20 mM solutions. Compounds were serially diluted with DMSO before diluting in cell culture medium to give concentrations four-fold greater than the final concentrations required in the assay. The dilutions of compound in culture medium were added to the cell plates (50 μL) in triplicates to achieve final concentrations of 100 μM, 50 μM, 10 μM, 5 μM, 1 μM and 0.1 μM. The final DMSO concentration in each well was 0.5% (v/v). The plates were incubated for 24 hours at 37° C., 5% CO2, in high humidity
After 24 hours incubation, the cells were washed (200 μL) twice with sterile phosphate buffered Saline (Sigma) and the cell culture medium replenished (200 μL). Plates were incubated at 37° C., 5% CO2, in high humidity for 96 hours. […] Dye was re-solubilised in (200 μL) 10 mM Tris buffer (Fisher Scientific) and the absorbance of each well read at both 565 nm and 690 nm using a BMG Fluorostar microplate reader. The reading at 690 nm was subtracted from the 565 nm reading, and the IC50 values determined by plotting the corrected absorbance value Vs. the compound concentration in the wells (XLfit version 4.0, ID Business Solutions Ltd). […]

[2] = system: A2780 (human ovarian carcinoma, ECACC 93112519); assay: Cytotoxicity A2780 (2nd method), sulforhodamine B; type: cell-based; conditions: 24 h exposure, then 96 h in fresh medium, SRB
Experimental: A2780 (2nd method) and A549: Cell line A2780 (human ovarian carcinoma, ECACC 93112519) was maintained in medium comprising RPMI-1640 (Sigma) with 5% Fetal Bovine Serum (Invitrogen), 2 mM L-Glutamine (Sigma) and 1% Penicillin/Streptomycin (Invitrogen), in T-75 flasks (Costar). Cells were passaged at approximately 75-90% confluence (1:8 dilution) using 0.25% Trypsin/EDTA (Invitrogen)
as §1, §2, §3
After 24 hours incubation, the cells were washed (200 μL) twice with sterile phosphate buffered Saline (Sigma) and the cell culture medium replenished (200 μL). Plates were incubated at 37° C., 5% CO2, in high humidity for 96 hours. After the incubation surviving cells were fixed by the addition of 50% (w/v) Trichloroacetic acid (50 μL) and incubated at 4° C. for 1 hour. Plates were washed three times with excess tap water and air-dried. Cells were dyed by the addition of (100 μL) 0.4% sulforhodamine B (Sigma) solution to the plates followed by five washes (200 μl) with 1% acetic acid solution to remove excess dye before air-drying. Dye was re-solubilised in (200 μL) 10 mM Tris buffer (Fisher Scientific) and the absorbance of each well read at both 565 nm and 690 nm using a BMG Fluorostar microplate reader. The reading at 690 nm was subtracted from the 565 nm reading, and the IC50 values determined by plotting the corrected absorbance value Vs. the compound concentration in the wells (XLfit version 4.0, ID Business Solutions Ltd). These are shown below in table 1

[3] = system: A2780 cells; assay: Cytotoxicity A2780 (1st method), cell counting; type: cell-based, human; conditions: 24 h cell exposure, cells counted on day 7
Experimental: A2780 (1st Method): A2780 cells were plated on day zero, and the complexes to be tested were added on day 3. The complex was removed on day 4 (i.e., 24 h cell exposure), and after growth in fresh medium in the absence of drug, the cells were counted on day 7. The complexes were stored in the dark at 277 K as a precaution against photochemical decomposition.

[4] = Hydrolysis kinetic studies by UV-Vis spectroscopy; type: physicochemical; parameters: key: —: no hydrolysis observed by UV-VIS; conditions: 298 K, methanol stock diluted with water
Experimental: Ultraviolet and Visible (UV-Vis) Spectroscopy: A Perkin-Elmer Lambda-16 UV-Vis spectrophotometer was used with 1-cm path-length quartz cuvettes (0.5 mL) and a PTP1 Peltier temperature controller. Spectra were processed using UVWinlab software for Windows' 95.
Kinetic Studies: Aliquots of stock solutions of the complexes to be tested (4-10 mM) in methanol were diluted to 500 μL with water, and the absorbance at selected wavelengths (determined by hydrolysis in an 19:1 mixture of water and methanol—see table 1 (λ)) was then recorded at 6 to 20 second intervals depending on the hydrolysis rate of each complex at 298 K. The hydrolysis rate constant kH2O for each complex was determined by computer fit of the absorbance/time data for each complex to the first-order rate equation (eq. 1), A=C0+C1e^−kt (1) where C0 and C1 are computer-fitted constants, and A is the absorbance corresponding to time t, and the results are reported in table 1 as the half life (t1/2). Cytoxicity Studies

Row | Molecule | IC50 [1] [µM] | IC50 [2] [µM] | IC50 [3] [µM] | t1/2 (hydrolysis), dash with footnote a [4]
1 | F[P-](F)(F)(F)(F)F.NCCN.[Cl][Ru+].c1ccc(-c2ccccc2)cc1 [Compound C1, [(η^6-C6H5C6H5)Ru(en)Cl][PF6], reference compound] | 11 | 6.5 | 8 | 
2 | Cc1c(C)c(C)c(C)c(C)c1C.F[P-](F)(F)(F)(F)F.NCCN.[Cl][Ru+] [Compound C2, [(η^6-C6(CH3)6)Ru(en)Cl][PF6], reference compound] |  |  | 9 | 
3 | [(η^6-C6(CH3)6)Ru(en)(3,5-dichloropyridine)][PF6]2 [Compound 6] |  | 18 | 23 | 
4 | [(η^6-C6(CH3)6)Ru(en)(3-methylpyridine)][PF6]2 [Compound 9] |  | 50 | 50 | —^a
5 | [(η^6-C6(CH3)6)Ru(en)(SCN)][PF6]2 [Compound 3] |  | 24 |  | 
6 | [(η^6-C6(CH3)6)Ru(en)(SPh)][PF6] [Compound 4] | 38 | 23 | 23 | —^a
7 | [(η^6-C6(CH3)6)Ru(en)(p-cyanopyridine)][PF6]2 [Compound 8] |  |  | 6 | 
8 | [(η^6-C6(CH3)6)Ru(en)(pyridine)][PF6]2 [Compound 2] |  |  |  | —^a
9 | [(η^6-C6H5C6H5)Ru(en)N3][PF6] [Compound 1] | 8.5 | 14 | 4 | 
